{"source": "ChEMBL document CHEMBL4020779", "about": "“Thio-functionalized carbohydrate thiosemicarbazones and evaluation of their anticancer activity” (Bioorg Med Chem Lett, 2017)", "key": {"A2780 [1]": {"tested_on": "A2780", "assay": "Induction of apoptosis in human A2780 cells assessed as viable cells at 0.115 uM after 24 hrs by Annexin-V-FITC/propidium iodide staining-based flow cytometric analysis (reference value: 93.9%)", "type": "functional", "conditions": "A2780, 24 h, read-out: Activity"}, "LoVo [2]": {"tested_on": "LoVo", "assay": "Induction of apoptosis in human LoVo cells assessed as apoptotic cells at 0.106 uM after 24 hrs by Annexin-V-FITC/propidium iodide staining-based flow cytometric analysis (reference value: 7.9%)", "type": "functional"}, "A2780 [3]": {"tested_on": "A2780", "assay": "Induction of oxidative stress in human A2780 cells assessed as increase in ROS level in cytoplasm at IC20 after 1 hr by H2DCF-DA probe based fluorescence assay", "type": "functional, cell-based"}, "LoVo [4]": {"tested_on": "LoVo", "assay": "Induction of DNA fragmentation in human LoVo cells assessed as apoptotic cells at 0.115 uM after 24 hrs by BrdU/FITC staining-based TUNEL assay (reference value: 0.8%)", "type": "functional"}, "LoVo [5]": {"tested_on": "LoVo", "assay": "Induction of DNA fragmentation in human LoVo cells assessed as viable cells at 460.6 uM after 24 hrs by BrdU/FITC staining-based TUNEL assay (reference value: 99.2%)", "type": "functional", "conditions": "read-out: Activity"}, "LoVo [6]": {"tested_on": "LoVo", "assay": "Induction of apoptosis in human LoVo cells assessed as necrotic cells at 426 uM after 24 hrs by Annexin-V-FITC/propidium iodide staining-based flow cytometric analysis (reference value: 2.9%)", "type": "functional"}, "LoVo [7]": {"tested_on": "LoVo", "assay": "Genotoxicity in human LoVo cells assessed as induction of DNA damage at 500 uM after 1 hr under alkaline condition by comet assay relative to control", "type": "functional"}, "A2780 [8]": {"tested_on": "A2780", "assay": "Genotoxicity in human A2780 cells assessed as induction of DNA damage at 500 uM after 1 hr under alkaline condition by comet assay relative to control", "type": "functional"}, "A2780 [9]": {"tested_on": "A2780", "assay": "Induction of oxidative stress in human A2780 cells assessed as increase in ROS level in cytoplasm at IC50 after 1 hr by H2DCF-DA probe based fluorescence assay", "type": "functional, cell-based"}, "A2780 [10]": {"tested_on": "A2780", "assay": "Induction of apoptosis in human A2780 cells assessed as necrotic cells at 0.115 uM after 24 hrs by Annexin-V-FITC/propidium iodide staining-based flow cytometric analysis (reference value: 4.1%)", "type": "functional"}, "MCF7 [11]": {"tested_on": "MCF7", "assay": "Genotoxicity in human MCF7 cells assessed as induction of DNA damage at 500 uM after 1 hr under alkaline condition by comet assay relative to control", "type": "functional"}, "A2780 [12]": {"tested_on": "A2780", "assay": "Induction of DNA fragmentation in human A2780 cells assessed as viable cells at 460.6 uM after 24 hrs by BrdU/FITC staining-based TUNEL assay (reference value: 96.1%)", "type": "functional", "conditions": "A2780, 24 h, read-out: Activity"}, "M059J [13]": {"tested_on": "M059J", "assay": "Genotoxicity in human M059J cells assessed as induction of DNA damage at 500 uM after 1 hr under alkaline condition by comet assay relative to control", "type": "functional"}, "A2780 [14]": {"tested_on": "A2780", "assay": "Induction of DNA fragmentation in human A2780 cells assessed as apoptotic cells at 460.6 uM after 24 hrs by BrdU/FITC staining-based TUNEL assay (reference value: 3.9%)", "type": "functional"}, "A2780 [15]": {"tested_on": "A2780", "assay": "Induction of apoptosis in human A2780 cells assessed as necrotic cells at 460.6 uM after 24 hrs by Annexin-V-FITC/propidium iodide staining-based flow cytometric analysis (reference value: 4.1%)", "type": "functional"}, "A2780 [16]": {"tested_on": "A2780", "assay": "Induction of DNA fragmentation in human A2780 cells assessed as viable cells at 0.115 uM after 24 hrs by BrdU/FITC staining-based TUNEL assay (reference value: 96.1%)", "type": "functional", "conditions": "A2780, 24 h, read-out: Activity"}, "LoVo [17]": {"tested_on": "LoVo", "assay": "Cytotoxicity against human LoVo cells after 72 hrs by CCK8 assay", "type": "functional, cell-based"}, "LoVo [18]": {"tested_on": "LoVo", "assay": "Induction of apoptosis in human LoVo cells assessed as viable cells at 426 uM after 24 hrs by Annexin-V-FITC/propidium iodide staining-based flow cytometric analysis (reference value: 89.7%)", "type": "functional", "conditions": "read-out: Activity"}, "HeLa [19]": {"tested_on": "HeLa", "assay": "Cytotoxicity against human HeLa cells after 72 hrs by CCK8 assay", "type": "functional, cell-based"}, "LoVo [20]": {"tested_on": "LoVo", "assay": "Induction of apoptosis in human LoVo cells assessed as apoptotic cells at 426 uM after 24 hrs by Annexin-V-FITC/propidium iodide staining-based flow cytometric analysis (reference value: 7.9%)", "type": "functional"}, "LoVo [21]": {"tested_on": "LoVo", "assay": "Induction of DNA fragmentation in human LoVo cells assessed as viable cells at 0.115 uM after 24 hrs by BrdU/FITC staining-based TUNEL assay (reference value: 99.2%)", "type": "functional", "conditions": "read-out: Activity"}, "LoVo [22]": {"tested_on": "LoVo", "assay": "Induction of DNA fragmentation in human LoVo cells assessed as apoptotic cells at 460.6 uM after 24 hrs by BrdU/FITC staining-based TUNEL assay (reference value: 0.8%)", "type": "functional"}, "MCF7 [23]": {"tested_on": "MCF7", "assay": "Cytotoxicity against human MCF7 cells after 72 hrs by CCK8 assay", "type": "functional, cell-based", "conditions": "MCF7, 72 h"}, "A2780 [24]": {"tested_on": "A2780", "assay": "Induction of apoptosis in human A2780 cells assessed as apoptotic cells at 0.115 uM after 24 hrs by Annexin-V-FITC/propidium iodide staining-based flow cytometric analysis (reference value: 2%)", "type": "functional"}, "LoVo [25]": {"tested_on": "LoVo", "assay": "Induction of apoptosis in human LoVo cells assessed as necrotic cells at 0.106 uM after 24 hrs by Annexin-V-FITC/propidium iodide staining-based flow cytometric analysis (reference value: 2.9%)", "type": "functional"}, "LoVo [26]": {"tested_on": "LoVo", "assay": "Induction of apoptosis in human LoVo cells assessed as viable cells at 0.106 uM after 24 hrs by Annexin-V-FITC/propidium iodide staining-based flow cytometric analysis (reference value: 89.7%)", "type": "functional", "conditions": "read-out: Activity"}, "M059J [27]": {"tested_on": "M059J", "assay": "Cytotoxicity against human M059J cells after 72 hrs by CCK8 assay", "type": "functional, cell-based"}, "HeLa [28]": {"tested_on": "HeLa", "assay": "Genotoxicity in human HeLa cells assessed as induction of DNA damage at 500 uM after 1 hr under alkaline condition by comet assay relative to control", "type": "functional"}, "A2780 [29]": {"tested_on": "A2780", "assay": "Cytotoxicity against human A2780 cells after 72 hrs by CCK8 assay", "type": "functional, cell-based", "conditions": "A2780, 72 h"}, "A2780 [30]": {"tested_on": "A2780", "assay": "Induction of apoptosis in human A2780 cells assessed as apoptotic cells at 460.6 uM after 24 hrs by Annexin-V-FITC/propidium iodide staining-based flow cytometric analysis (reference value: 2%)", "type": "functional"}, "A2780 [31]": {"tested_on": "A2780", "assay": "Induction of apoptosis in human A2780 cells assessed as viable cells at 460.6 uM after 24 hrs by Annexin-V-FITC/propidium iodide staining-based flow cytometric analysis (reference value: 93.9%)", "type": "functional", "conditions": "A2780, 24 h, read-out: Activity"}, "A2780 [32]": {"tested_on": "A2780", "assay": "Induction of DNA fragmentation in human A2780 cells assessed as apoptotic cells at 0.115 uM after 24 hrs by BrdU/FITC staining-based TUNEL assay (reference value: 3.9%)", "type": "functional"}}, "note": "The source made the active and inactive calls. The rule behind the calls is not given here."}
{"smiles": "CC(=O)OC[C@H]1O[C@@H](O[C@H]2[C@H](OC(C)=O)[C@@H](OC(C)=O)[C@H](S[C@@H]3CC(=O)[C@@H]4OC[C@H]3O4)O[C@@H]2COC(C)=O)[C@H](OC(C)=O)[C@@H](OC(C)=O)[C@H]1OC(C)=O", "values": [{"measurement": "viability at 0.115 µM", "setting": "A2780 [1]", "result": 91.6, "unit": "%"}, {"measurement": "Activity", "setting": "LoVo [2]", "result": 12.5, "unit": "%"}, {"measurement": "Activity", "setting": "A2780 [3]", "result": "inactive"}, {"measurement": "Activity", "setting": "LoVo [4]", "result": 6.3, "unit": "%"}, {"measurement": "viability at 460.6 µM", "setting": "LoVo [5]", "result": 90.6, "unit": "%"}, {"measurement": "Activity", "setting": "LoVo [6]", "result": 12.6, "unit": "%"}, {"measurement": "Activity", "setting": "LoVo [7]", "result": "10 - 20%"}, {"measurement": "Activity", "setting": "A2780 [8]", "result": "<10", "unit": "%"}, {"measurement": "Activity", "setting": "A2780 [9]", "result": "inactive"}, {"measurement": "Activity", "setting": "A2780 [10]", "result": 1.4, "unit": "%"}, {"measurement": "Activity", "setting": "MCF7 [11]", "result": "<10", "unit": "%"}, {"measurement": "viability at 460.6 µM", "setting": "A2780 [12]", "result": 59, "unit": "%"}, {"measurement": "Activity", "setting": "M059J [13]", "result": "<10", "unit": "%"}, {"measurement": "Activity", "setting": "A2780 [14]", "result": 41, "unit": "%"}, {"measurement": "Activity", "setting": "A2780 [15]", "result": 5.7, "unit": "%"}, {"measurement": "viability at 0.115 µM", "setting": "A2780 [16]", "result": 85.5, "unit": "%"}, {"measurement": "IC20", "setting": "LoVo [17]", "result": 106, "unit": "µM"}, {"measurement": "IC50", "setting": "LoVo [17]", "result": 426, "unit": "µM"}, {"measurement": "viability at 426 µM", "setting": "LoVo [18]", "result": 71.2, "unit": "%"}, {"measurement": "IC50", "setting": "HeLa [19]", "result": 875, "unit": "µM"}, {"measurement": "Activity", "setting": "LoVo [20]", "result": 16.3, "unit": "%"}, {"measurement": "viability at 0.115 µM", "setting": "LoVo [21]", "result": 96.7, "unit": "%"}, {"measurement": "Activity", "setting": "LoVo [22]", "result": 9.4, "unit": "%"}, {"measurement": "IC50", "setting": "MCF7 [23]", "result": 913, "unit": "µM"}, {"measurement": "Activity", "setting": "A2780 [24]", "result": 7, "unit": "%"}, {"measurement": "Activity", "setting": "LoVo [25]", "result": 5.5, "unit": "%"}, {"measurement": "viability at 0.106 µM", "setting": "LoVo [26]", "result": 82, "unit": "%"}, {"measurement": "IC50", "setting": "M059J [27]", "result": 827, "unit": "µM"}, {"measurement": "Activity", "setting": "HeLa [28]", "result": "<10", "unit": "%"}, {"measurement": "IC20", "setting": "A2780 [29]", "result": 0.115, "unit": "µM"}, {"measurement": "IC50", "setting": "A2780 [29]", "result": 461, "unit": "µM"}, {"measurement": "Activity", "setting": "A2780 [30]", "result": 22.9, "unit": "%"}, {"measurement": "viability at 460.6 µM", "setting": "A2780 [31]", "result": 71.4, "unit": "%"}, {"measurement": "Activity", "setting": "A2780 [32]", "result": 15.5, "unit": "%"}]}
